Results on two compounds are retold here after patent publication US4857652A, “Chemiluminescent 1,2-dioxetane compounds” (priority 1988, dated 1989).

Series [1] relates to alkaline phosphatase, Type VII-S from Bovine Intestinal Mucosa. The series can be described thus: Enzymatic triggering of chemiluminescence with alkaline phosphatase (bovine). Type of series: biochemical. The note with it: 2-amino-2-methyl-1-propanol buffer pH 10.3, 37° C., 10 μL enzyme suspension. On the procedure: A cuvette containing 3 mL of a buffer solution of 2-amino-2-methyl-1-propanol (Sigma Chemical Co., pH=10.3, 1.5M) was placed in the black box at 37° C. A portion (200 μL) of the dioxetane stock solution (6d in CH2 Cl2) was added to this buffer solution. Subsequent addition of 10 μL of an alkaline phosphatase suspension [Sigma, Type VII-S from Bovine Intestinal Mucosa, suspension in 3.2M (NH4)2 SO4 ] gave rise to chemiluminescence over a period of approximately 2-3 min indicating the enzymatic triggering of the dioxetane.

For series [2] the following is noted: 25° C.; cited from earlier work.

In the case of `O=P(O)(O)Oc1ccc2c(c1)Oc1ccccc1C21OOC12C1CC3CC(C1)CC2C3` (centres unmarked) [Dioxetane 6d, Dispiro[adamantane-2,3'-[1,2]dioxetane-4',9"-(3-phosphate-9H-xanthene]], the period of chemiluminescence in series [1] was in the range of 2 to 3 min.
For `Oc1ccc(C23OCCOC2(c2ccccc2)OO3)cc1` (centres unmarked) [deprotonated dioxetane (X=O^-)], in series [2], the “rate of decomposition relative to protonated form (X=OH)” value is 5.7×10^6 times.
